Patent US7179461B2, “Plasminogen activator to prevent corneal and subepithelial haze after laser vision correction surgery” (The Johns Hopkins University, priority 2000, dated 2007)
Read-outs that look alike come from different tables or passages of the source. Each block holds one molecule with its values, some of them ahead of it.

Key:
[1] = system: corneal haze after PRK; settings: rabbits, excimer laser PRK; cited from earlier work
[2] = molecular target: T1, urokinase-type plasminogen activator (uPA) in rabbit tears (Oryctolagus cuniculus, UniProt Q8MHY7); assay: Plasminogen activator activity in rabbit tears after PRK, spectrophotometric method with human plasminogen and S-2251; assay type: in vivo, New Zealand rabbits
T1 construct: from tissue; host or cells: rabbit tear fluid collected with glass capillaries
T1 sequence (Q8MHY7 17-433): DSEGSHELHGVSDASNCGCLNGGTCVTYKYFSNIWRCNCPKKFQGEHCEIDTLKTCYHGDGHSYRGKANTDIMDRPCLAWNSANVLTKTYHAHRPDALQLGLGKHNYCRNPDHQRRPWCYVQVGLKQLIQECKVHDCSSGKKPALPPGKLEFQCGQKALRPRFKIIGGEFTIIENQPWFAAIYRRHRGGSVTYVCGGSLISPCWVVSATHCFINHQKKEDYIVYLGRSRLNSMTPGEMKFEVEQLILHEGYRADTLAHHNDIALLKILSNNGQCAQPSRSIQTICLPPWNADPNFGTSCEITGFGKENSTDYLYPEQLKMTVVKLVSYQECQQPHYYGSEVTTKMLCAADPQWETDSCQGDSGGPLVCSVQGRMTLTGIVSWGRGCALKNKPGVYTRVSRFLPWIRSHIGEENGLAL
Protocol: Both eyes in each of 8 rabbits underwent PRK treatment. One eye of each rabbit was treated with a serine protease inhibitor (SPI) over the first 7 days to inactivate uPA in the tears and on the surface of the cornea. uPA in the tear samples was measured by a spectrophotometric method using human plasminogen and chromogenic peptide substrate S-2251.
Materials and Methods Sixteen eyes of eight normal healthy New Zealand rabbits (3.0–3.5 kg) underwent PRK surgery for spherical correction using the Schwind Keratom II ArF excimer laser (193 nm), performed by the same surgeon at Vital-Laser LLC, Department of Ophthalmology, University Medical School of Debrecen. Animals were handled and treated in adherence to the ARVO Statement for the Use of Animals in Ophthalmic and Vision Research. De-epithelialization was performed with a blunt Keratome Blade knife after epithelial marking with a 6.0–6.5 mm Hoffer trephine. The epithelium was scraped gently from periphery to center. Residual epithelial debris was removed with a sterile microsponge.
Topical anesthetic (0.4% oxybuprocaine hydrochloride) eye drops were administered twice before the surgery. General anesthesia was accomplished by intravenous injection of ketamine-xylazine (2.2:1 ratio, 10 mg/kg). The PRK surgeries were performed on the morning of day 1. The postoperative treatment included antibiotic eye drops, Ciloxan (Alcon), twelve times (hourly) on day 1 and five times (every two hours) on five additional days (postoperative days 2–5 and 7). FLUCON™ (Alcon) and TEARS NATURALE™ (Alcon) were given 5 times daily (every two hours) during the first postoperative month, reduced to 4 times daily (every three hours) for the second month and 3 times daily (every four hours) for the third month. All rabbits received follow-up examinations at 1, 3 and 6 months following the PRK procedure.
In addition, the left eye of each rabbit received 1 drop of 10,000 KIE/ml serine protease inhibitor (SPI), aprotinin (Gordox, Richter Gideon Rt., Budapest), twelve times (hourly) on day 1 and five times (every two hours) on five additional days (postoperative days 2–5 and 7). This was designated the “With-SPI” group. The right eyes were not treated with SPI and were designated the “No-SPI” group. After the seventh day, identical treatment was used on both eyes. No other treatment was used during the six month follow-up period. […] Lottenberg R, Sjak-Shie N, Fazleabas A T, Roberts R M. Aprotinin inhibits urokinase but not tissue-type plasminogen activator. Thromb Res 1988;49:549–556; and Fritz H, Wunderer G. Biochemistry and applications of aprotinin, the kallikrein inhibitor from bovine organs. Arzneim Forsch 1983;33:479–494.
Tear samples for plasminogen activator activity analyses were obtained on the day before the PRK surgery (day 0). Tear samples were collected within minutes after PRK (day 1), before treatment with any eye drops. Daily on postoperative days 2–5, on postoperative day 7 and every fourth day thereafter for three months (91 days), tears were sampled in the morning prior to the administration of any eye drops on the given day so that SPI treatment would not change the uPA levels.
Samples consisted of tears collected with glass capillaries using i.m. injection of pilocarpine hydrochloride (5 mg/kg) for stimulation. Tears were taken from the lower tear meniscus and care was taken not to touch the conjunctiva. The same collection method was used throughout the study. The duration of the sampling time was recorded and the secretion rate was calculated in μl/min, dividing the obtained tear volume by the time of sample collection. Samples used in this investigation had secretion rates of 15–50 μl/min. Samples were centrifuged (1800 rpm) for 8–10 minutes right after sample collection and supernatants were immediately deep-frozen at −80° C. and were thawed only once for measurements. […]

[3] = molecular target: urokinase-type plasminogen activator (Homo sapiens, UniProt P00749); settings: cited from earlier work
[4] = system: rabbit corneal endothelium; settings: perfused in vitro for three hours, concentrations up to 5,000 IU/ml; cited from earlier work

Molecule: CO[C@@]12[C@H](COC(N)=O)C3=C(C(=O)C(C)=C(N)C3=O)N1C[C@@H]1N[C@@H]12 [mitomycin C]
Effect on corneal haze after PRK [1]: reduce haze after PRK

Day by which mean uPA levels returned to preoperative levels ([2]; SPI-treated rabbit eyes, SPI over first 7 days): 15 days
uPA activity, mean value averaged over days 1–7 ([2]; SPI-treated rabbit eyes, period of SPI suppression): 0.13 (0.15) IU/ml
Mean uPA activity on days 1–7 lower than the equilibrium plasminogen activator activity level ([2]; SPI-treated rabbit eyes, versus days 19–91 level, p<0.001): 95%
PAA: With-SPI, mean (SD), equilibrium level ([2]; averaged over days 19–91, rabbit tears): 2.88 (0.22) IU/ml
PAA: With-SPI, mean (SD) ([2]; day 0 (day before PRK, before SPI), rabbit tears, 8 eyes): 2.77 (0.26) IU/ml
PAA: With-SPI, mean (SD) ([2]; day 1 (within minutes after PRK, before eye drops), rabbit tears): 0.42 (0.47) IU/ml
PAA: With-SPI, mean (SD) ([2]; day 2, rabbit tears, sampled in the morning before SPI drops, 10,000 KIE/ml SPI): 0.18 (0.21) IU/ml
PAA: With-SPI, mean (SD) ([2]; day 3, rabbit tears, sampled before SPI drops): 0.04 (0.03) IU/ml
PAA: With-SPI, mean (SD) ([2]; day 4, rabbit tears, sampled before SPI drops): 0.03 (0.04) IU/ml
PAA: With-SPI, mean (SD) ([2]; day 5, rabbit tears, sampled before SPI drops): 0.05 (0.05) IU/ml
PAA: With-SPI, mean (SD) ([2]; day 7, rabbit tears, sampled before SPI drops): 0.05 (0.04) IU/ml
PAA: With-SPI, mean (SD) ([2]; day 11 (after end of SPI treatment), rabbit tears): 2.63 (0.18) IU/ml
PAA: With-SPI, mean (SD) ([2]; day 15, rabbit tears): 2.76 (0.18) IU/ml
Molecule: aprotinin [SPI]
Inhibition of plasminogen activator (urokinase) activity [3]: effective inhibitor of plasminogen activator activity
Inhibition of plasminogen activator (urokinase) activity ([3]; listed as Aprotinin): especially effective for inhibiting urokinase

Molecule: urokinase
Endothelial mosaic under scanning electron microscopic scrutiny [4]: retains a normal endothelial mosaic
Swelling of rabbit corneas [4]: does not induce meaningful swelling
Toxicity to rabbit corneal endothelium [4]: non-toxic
